Source: US7235267B1, “Brain cell or nerve cell-protecting agents comprising medicinal ginseng” (priority 1999, dated 2007)

Tests used:
[1] = tested on: SH-SP rats with MCA permanent occlusion; assay: TTC staining of cerebral infarct lesion 24 hours after MCA permanent occlusion; type: in vivo, rat
[2] = tested on: Wistar rats with spinal cord injury; assay: Spinal cord injury model (20 g compression on lower thoracic cord for 20 minutes); type: in vivo, rat; conditions: for paralysis or paraplegia of both lower limbs: Solu-Medrol intravenous 30 mg/kg on the same schedule, 30 mg/kg
Excerpt: The present inventors have investigated the effects of repetitive or continuous intravenous administration of ginsenoside Rb1 using rats with spinal cord injury and the effects were compared with those of repetitive or continuous intravenous administration of a crude saponin fraction of medicinal ginseng. If pressure is loaded on certain spinal segments such as the lower thoracic cord, not only nerve cells (neurons) in the gray matter of the same region but also fiber tracts or pathways in the white matter of the same region are damaged. The damages to the fiber tracts or pathways of the white matter are further developed to the distal portions (caudal portions) as well as causing the secondary degeneration of the origins of the fiber tract or pathways, namely the upper nerve cell bodies (i.e. origins) which project fibers (nerve processes) to the fiber tracts or pathways. As a result, the damages to the fiber tracts or pathways of the white matter in the lower thoracic cord, which received compression loading, induce the secondary degeneration of the origins (nerve cell bodies) sending fibers (also termed nerve processes or axons) to the fiber tracts or pathways as well as the secondary degeneration of fiber tracts located distal to the lower thoracic cord (i.e. lumbar cord and sacral cord) to cause paraplegia of both limbs. Further, since the innervation from the brain regions proximal to the lumbar cord and sacral cord is cut off due to damage to the lower thoracic cord, the secondary degeneration of nerve cells in the gray matters of the lumbar cord and sacral cord is further induced, as a result, paraplegia of the limbs can not be recovered. For that model of the spinal cord injury, the present inventors have used male Wistar rats (body weight about 300 g) loaded with 20 g of compression on the lower thoracic cord for 20 minutes.
Under inhalation anesthesia by a mixture of nitrous oxide and halothane, the rats were loaded with 20 g of compression on the lower thoracic cord for 20 minutes. After more than 30 minutes passed, ginsenoside Rb1 dissolved in physiological saline was injected once into the left femoral vein (12 μg or 60 μg), thereafter continuous or repetitive intravenous administration of ginsenoside Rb1 was performed for 7 days by using an Alza osmotic minipump (12 μg/day or 60 μ/day). Control animals and sham-operated animals were administered with the same amount of physiological saline (vehicle) alone. The open field locomotor scores [Basso, Bettie and Bresnakan (BBB) scores] were measured in each animal before loading spinal cord injury, on the day of spinal cord injury and from 1st day to 7th day after the spinal cord injury for use as an index of motor functions (Basso D. M. et al., J. Neurotrauma, 13, 343-359, 1996). BBB scores of the sham-operated rats (normal rats) were 20-21.
Under inhalation anesthesia by a mixture of nitrous oxide and halothane, the rats were loaded with 20 g of compression on the lower thoracic cord for 20 minutes. More than 30 minutes later, the crude saponin fraction dissolved in physiological saline was infused once into the left femoral vein (870 μg), thereafter continuous intravenous administration of the crude saponin fraction was performed for 7 days by using an Alza osmotic minipump (870 μg/day). Control animals with spinal cord injuries were administered with the same amount of physiological saline (vehicle) alone. […] These figures are photographs in place of drawings.
Under inhalation anesthesia by a mixture of nitrous oxide and halothane, wistar rats (body weight about 300 g) were loaded with 20 g of compression on the lower thoracic cord for 20 minutes. After they were awakened from anesthesia, the rats with paraplegia in both hindlimbs were allowed to stay for 1 hour and 40 minutes in the cage. […]

Row | Compound | cerebral infarct lesion (TTC staining) ([1]; dihydroginsenoside Rb1 intravenous 6 μg/day for 24 hours after MCA permanent occlusion) | volume of cerebral infarct lesion relative to non-administered group ([1]; intravenous low doses) | experimental animals died within 7 days after spinal cord injuries ([2]; Solu-Medrol 30 mg/kg, 4 out of 10 rats) | paralysis or paraplegia of both lower limbs [2] | paralysis or paraplegia of both lower limbs ([2]; listed as Solu-Medol) | healing of the operative dorsal wounds / ill effects ([2]; rat, in vivo)
1 | CC(C)CCC[C@](C)(O[C@@H]1O[C@H](CO[C@@H]2O[C@H](CO)[C@@H](O)[C@H](O)[C@H]2O)[C@@H](O)[C@H](O)[C@H]1O)[C@H]1CC[C@]2(C)[C@@H]1[C@H](O)C[C@@H]1[C@@]3(C)CC[C@H](O[C@@H]4O[C@H](CO)[C@@H](O)[C@H](O)[C@H]4O[C@@H]4O[C@H](CO)[C@@H](O)[C@H](O)[C@H]4O)C(C)(C)[C@@H]3CC[C@]12C [dihydroginsenoside Rb1] | markedly reduced | about ¼ |  |  |  | 
2 | C[C@H]1C[C@@H]2[C@H]([C@@H](O)C[C@@]3(C)[C@H]2CC[C@]3(O)C(=O)COC(=O)CCC(=O)[O-])[C@@]2(C)C=CC(=O)C=C12.[Na+] [reference compound] |  |  | about 40% | no significant ameliorating effects | could not ameliorate | obviously delayed
